Source: ChEMBL document CHEMBL5584214, “Design of MERS-CoV entry inhibitory short peptides based on helix-stabilizing strategies” (Bioorg Med Chem Lett, 2024)
≈ marks a conversion by molar mass, not a printed value. Calls of active or inactive are those of the source. The calls are words filed in the database; no cut-off is given here. Non-standard residues stand in square brackets, D forms with d. Residues, ends and D or L forms follow the SMILES beside them. *: point of attachment. PEG24 = NCCOCCOCCOCCOCCOCCOCCOCCOCCOCCOCCOCCOCCOCCOCCOCCOCCOCCOCCOCCOCCOCCOCCOCCOCCC(=O)O; Palmitoyl = CCCCCCCCCCCCCCCC(=O)*; AEEA = NCCOCCOCC(=O)O; Aib = CC(C)(N)C(=O)O

What was measured:
[1] = Volume of distribution in Sprague-Dawley rat at 4 mg/kg, iv administered as single dose and measured upto 36 hrs by LC-MS/MS analysis; assay type: ADME, organism-based; conditions: in vivo
[2] = Inhibition of MERS-CoV Spike glycoprotein mediated cell-cell fusion; parameters: species or system Middle East respiratory syndrome-related coronavirus
[3] = Cmax in Sprague-Dawley rat at 4 mg/kg, iv administered as single dose and measured upto 36 hrs by LC-MS/MS analysis; assay type: ADME, organism-based; conditions: in vivo
[4] = MRT (0 to t) in Sprague-Dawley rat at 4 mg/kg, iv administered as single dose and measured upto 36 hrs by LC-MS/MS analysis; assay type: ADME, organism-based; conditions: in vivo
[5] = Half life in Sprague-Dawley rat at 4 mg/kg, iv administered as single dose and measured upto 36 hrs by LC-MS/MS analysis; assay type: ADME, organism-based; conditions: in vivo
[6] = Clearance in Sprague-Dawley rat at 4 mg/kg, iv administered as single dose and measured upto 36 hrs by LC-MS/MS analysis; assay type: ADME, organism-based; conditions: in vivo
[7] = AUC (0 to t) in Sprague-Dawley rat at 4 mg/kg, iv administered as single dose and measured upto 36 hrs by LC-MS/MS analysis; assay type: ADME, organism-based; conditions: in vivo
[8] = Cytotoxicity against human Huh-7 cells infected with MERS CoV pseudovirus assessed as reduction in cell viability; assay type: toxicity, cell-based
[9] = Water solubility of compound in PBS at pH 7.4; assay type: physicochemical
[10] = Selectivity index, ratio of CC50 for human Huh-7 cells infected with MERS CoV pseudovirus to EC50 for MERS CoV pseudovirus infected in Huh-7 cells; assay type: toxicity, cell-based; conditions: read-out: Ratio CC50/EC50
[11] = system: Middle East respiratory syndrome-related coronavirus; assay: Antiviral activity against MERS CoV pseudovirus infected in Huh-7 cells assessed as inhibition of viral infection; assay type: functional, organism-based
[12] = system: Middle East respiratory syndrome-related coronavirus; assay: Inhibition of MERS CoV spike glycoprotein HR1/HR2 fusion assessed as disruption of fusion-active core formation by measuring reduction in six-helix bundle density at 100 uM by native-PAGE analysis
[13] = Water solubility of compound in dd-H2O; assay type: physicochemical
[14] = system: Middle East respiratory syndrome-related coronavirus; assay: Inhibition of MERS CoV spike glycoprotein HR1/HR2 fusion assessed as disruption of fusion-active core formation by measuring increase in HR2P density at 100 uM by native-PAGE analysis

CC[C@H](C)[C@H](NC(=O)[C@H](Cc1ccc(O)cc1)NC(=O)[C@H](CO)NC(=O)[C@H](CCC(=O)O)NC(=O)[C@H](CCC(=O)O)NC(=O)[C@H](CC(C)C)NC(=O)[C@H](CCCCN)NC(=O)[C@H](CCCCN)NC(=O)[C@@H](NC(=O)[C@@H](NC(=O)[C@H](CCC(=O)O)NC(=O)[C@H](CCC(=O)O)NC(=O)[C@H](CC(C)C)NC(=O)[C@H](CCCCN)NC(=O)[C@H](CCCCN)NC(=O)[C@H](CCSC)NC(=O)[C@H](CCC(=O)O)NC(=O)[C@H](Cc1ccc(O)cc1)NC(=O)[C@H](CCC(=O)O)NC(=O)[C@H](CC(C)C)NC(=O)[C@H](CC(=O)O)NC(=O)[C@H](CC(C)C)NC(=O)[C@H](CC(C)C)NC(=O)[C@@H](NC(=O)[C@@H](NC(=O)[C@H](CC(N)=O)NC(=O)[C@@H](NC(=O)[C@H](CCC(N)=O)NC(=O)[C@@H](NC(=O)[C@H](CC(C)C)NC(=O)[C@@H](N)CO)[C@@H](C)O)[C@@H](C)CC)[C@@H](C)O)[C@@H](C)O)C(C)C)C(C)C)C(=O)N[C@@H](CC(=O)O)C(=O)N[C@@H](CC(C)C)C(=O)N[C@@H](CCCCN)C(=O)N[C@@H](CCC(=O)O)C(=O)N[C@@H](CC(C)C)C(=O)O
Vd [1]: 0.307 L/kg
EC50 [2]: 0.75 µM
Cmax [3]: 30400 ng/mL
MRT last at 36 h [4]: 0.28 h
half-life [5]: 0.35 h
clearance [6]: 10.2 mL/min/kg
AUC(0-t) at 36 h [7]: 6450 ng·h/mL

CCCCCCCCCCCCCCCC(=O)NCCCC[C@H](NC(=O)COCCOCCNC(=O)[C@H](Cc1ccc(O)cc1)NC(=O)[C@H](CO)NC(=O)[C@H](CCC(=O)O)NC(=O)[C@H](CC(N)=O)NC(=O)[C@H](CC(C)C)NC(=O)[C@H](CCCCN)NC(=O)[C@H](CCCCN)NC(=O)[C@@H](NC(=O)[C@@H](NC(=O)[C@H](CCC(=O)O)NC(=O)[C@H](CCC(N)=O)NC(=O)[C@H](CC(C)C)NC(=O)[C@H](CO)NC(=O)[C@H](CC(C)C)NC(=O)[C@H](CCSC)NC(=O)C(C)(C)NC(=O)[C@H](Cc1ccc(O)cc1)NC(=O)[C@@H](NC(=O)[C@H](CC(C)C)NC(=O)C(C)(C)NC(=O)[C@H](CC(C)C)NC(C)=O)[C@@H](C)O)C(C)C)C(C)C)C(N)=O (Ac-L[Aib]LTY[Aib]MLSLQEVVKKLNESY[AEEA]K(Palmitoyl)-NH2)
Vd [1]: 0.683 L/kg
EC50 [2]: 0.245 µM
CC50 [8]: > 200 µM
solubility [9]: 5.46 µM (≈ 16.4 µg/mL)
Cmax [3]: 5000 ng/mL
selectivity ratio [10]: > 38.3
EC50 [11]: 5.22 µM
MRT last at 36 h [4]: 9.1 h
half-life [5]: 7.27 h
inhibition [12]: Active
solubility [13]: 1.17 µM (≈ 3.5 µg/mL)
clearance [6]: 1.08 mL/min/kg
inhibition [14]: Active
AUC(0-t) at 36 h [7]: 59800 ng·h/mL

CCCCCCCCCCCCCCCC(=O)NCCCC[C@H](NC(=O)CCOCCOCCOCCOCCOCCOCCOCCOCCOCCOCCOCCOCCOCCOCCOCCOCCOCCOCCOCCOCCOCCOCCOCCOCCNC(=O)[C@H](Cc1ccc(O)cc1)NC(=O)[C@H](CO)NC(=O)[C@H](CCC(=O)O)NC(=O)[C@H](CC(N)=O)NC(=O)[C@H](CC(C)C)NC(=O)[C@H](CCCCN)NC(=O)[C@H](CCCCN)NC(=O)[C@@H](NC(=O)[C@@H](NC(=O)[C@H](CCC(=O)O)NC(=O)[C@H](CCC(N)=O)NC(=O)[C@H](CC(C)C)NC(=O)[C@H](CO)NC(=O)[C@H](CC(C)C)NC(=O)[C@H](CCSC)NC(=O)C(C)(C)NC(=O)[C@H](Cc1ccc(O)cc1)NC(=O)[C@@H](NC(=O)[C@H](CC(C)C)NC(=O)C(C)(C)NC(=O)[C@H](CC(C)C)NC(C)=O)[C@@H](C)O)C(C)C)C(C)C)C(N)=O (Ac-L[Aib]LTY[Aib]MLSLQEVVKKLNESY[PEG24]K(Palmitoyl)-NH2)
EC50 [2]: > 50 µM

Ac-LDLTYEMASLQAVVKALNESY-NH2
EC50 [2]: > 50 µM
